# Experimental data published in patent US9314525B2 (Axelar AB, priority 2010, dated 2016).
# Key:
# [1] = Physical stability of polymorphs stirred in water, sonicated or mortared (XRPD); type: physicochemical; details: for Solid form by XRPD after stirring in water: slurry in water rotated for 24 hours
# Experimental: The slurry was centrifuged and the supernatant was removed. The solid was dried under vacuum overnight and the sample was thereafter, stored at ambient conditions.
# The slurry was centrifuged 3000 rpm for 10 minutes and the supernatant was removed. The solid was freezed (in a freezer) and freeze-dried overnight. The sample was kept at ambient conditions for 2 hours before the XRPD analysis.
# [2] = Solubility in 1% SDS in water by LC-UV; type: physicochemical; details: after 24 hours rotation, ambient temperature
# Experimental: The solubility was determined in triplicate by use of LC-UV chromatography. […] The substance was rotated in the specific medium at ambient temperature for 24 hours, followed by filtering the supernatant using a hydrophilic PVDF (Millipore Corp.) 0.22 μm filter. The samples were then diluted with a 1:1 mixture of mobile phase A and B (see below) and analyzed using an Xterra™ MS C18, 50×2.1 mm column with UV detection at 288 nm. The mobile phase consisted of acetonitrile, water and trifluoroacetic acid, 5:95:0.1 (A) and 99:1:0.1 (B).
# Solubility determinations were performed in 1% sodium dodecyl sulfate (SDS) in water.
# [3] = Thermogravimetric analysis (TGA); type: physicochemical; details: initial analysis
# Experimental: (§1) Thermogravimetric analysis (TGA) was performed on a Seiko TG/DTA 6200 and open 90 μl Pt-pans with ca 10 to 25 mg of sample and a nitrogen flow of 200 ml/min. The temperature program was ambient (20° C.) to 400° C. with a heating rate of 10° C./min. A blank was subtracted and the TG data was normalized with respect to sample size and analyzed using the Muse Standard Analysis software, version 6.1 U (Seiko, Japan).
# [4] = Three month solid state stability study (appearance, XRPD, TGA); type: physicochemical; details: for TGA mass loss from ambient temperature to 150° C.: after 3 months storage at 40° C./75% RH; for Change in appearance: open containers
# Experimental: Analysis was made by using X-Ray Powder Diffration (XRPD) and Thermogravimetry (TGA).
# Experiments were run as described above using Cu Kα1 radiation (45 kV and 40 mA) at ambient temperature and humidity. Scans were run in continous scan mode in the range 2-50° 2θ using automatic divergence and antiscatter slits with observed length of 10 mm, a step size of 0.013° 2θ and a common counting time of 97.920 seconds.
# as §1, with “Thermogravimetry” for “Thermogravimetric analysis”, “20” for “25”, “mL/min.” for “ml/min.”, “U.” for “U (Seiko, Japan).”
# [5] = Powder dissolution profiling (intrinsic dissolution rate and apparent solubility) in PhB 6.5 and FeSSIF pH 6.5
# Experimental: Phosphate buffer pH 6.5 (PhB 6.5) was prepared according to a protocol by Galia and co-workers (Galia, E., et al. Evaluation of various dissolution media for predicting in vivo performance of class I and II drugs. Pharm Res 15, pp. 698-705 (1998)). Briefly, 1000 mL of […] Na2HPO4 buffer pH 6.5 was prepared by dissolving 3.95 g Na2HPO4xH2O, 6.19 g NaCl and 0.42 g NaOH in a volumetric flask by adding purified water. The pH was adjusted to pH to 6.5 by titration with 0.5 M NaOH and the volume was adjusted to 1000 mL with purified water. This buffer was sterile filtered and thereafter stored in refrigerator. Fed state simulated intestinal fluid (FeSSIF pH 6.5) was prepared fresh on the day of the experiment by dissolving 1.12 g of Na-taurocholate/lecithin powder (ePhares, Switzerland) in 100 mL PhB ((Galia, E., et al. Evaluation of various dissolution media for predicting in vivo performance of class I and II drugs. Pharm Res 15, pp. 698-705 (1998)). The media was stirred and preheated to 37±1° C. resulting in clear solution of pH 6.5 which contained a mixed micelle system of 15 mM taurocholate and 3.75 mM lecithin.
# Dissolution rate and apparent solubility was measured with the pDISS Profiler™ (pION INC, MA, USA) from 0.3-1.3 mg compound weighed into the vial to which the preheated (37° C.) dissolution medium was added. […] Each UV probe was calibrated with its own standard curve prior to the experiment. The obtained results were analysed with the software accompanying the pDISS equipment.
# The detailed procedure of the powder dissolution experiments, including the theoretical background, can be found in Avdeef, A., Tsinman, K., Tsinman, O., Sun, N. & Voloboy, D. Miniaturization of powder dissolution measurement and estimation of particle size. Chem Biodivers 6, 1796-1811 (2009); in Fagerberg, J. H., et al. Dissolution Rate and Apparent Solubility of Poorly Soluble Drugs in Biorelevant Dissolution Media. Mol Pharm 7, 1419-1430, (2010); and in Tsinman, K., Avdeef, A., Tsinman, O. & Voloboy, D. Powder dissolution method for estimating rotating disk intrinsic dissolution rates of low solubility drugs. Pharm Res 26, 2093-2100 (2009).
# [6] = Slurry experiments with mixture of polymorphs B and C in saturated picropodophyllin solutions; type: physicochemical
# Experimental: The solid was filtered off and the saturated picropodophyllin solutions were used in the slurry experiment below.
# The solid was filtered off using a glass filter and stored at ambient conditions for 2 hours.
# The solid was filtered off using a glass filter and left on the glass filter for 30 minutes.
# The slurry was slowly stirred overnight. The slurry was removed from the oil bath and immediately filtered through a glass filter. The solid was left on the glass filter for 30 minutes.
# The slurry was slowly stirred for 4 hours. The slurry was removed from the oil bath and immediately filtered through a glass filter. The solid was left on the glass filter for 30 minutes.
# [7] = Dynamic Vapour Sorption (DVS) hygroscopicity; type: physicochemical; details: from 0 to 90% RH, 25° C.
# Experimental: The hygroscopicity of the samples was studied by Dynamic Vapor Sorption Gravimetry (DVS) using a DVS-1 (Surface Measurement Ltd., UK).
# Each sample was run in three consecutive full cycles. The condition to proceed to the next level of RH was a weight increase below or equal to 0.001% within 15 minutes, with a maximum total time per step of 24 hours. The temperature was kept at 25° C.
# [8] = target: insulin-like growth factor-1 receptor (IGF-1R) (Homo sapiens, UniProt P08069); details: disclosed in WO 02/102804; cited from earlier work
# Chain of insulin-like growth factor-1 receptor (IGF-1R) (P08069 31-1367, species assumed): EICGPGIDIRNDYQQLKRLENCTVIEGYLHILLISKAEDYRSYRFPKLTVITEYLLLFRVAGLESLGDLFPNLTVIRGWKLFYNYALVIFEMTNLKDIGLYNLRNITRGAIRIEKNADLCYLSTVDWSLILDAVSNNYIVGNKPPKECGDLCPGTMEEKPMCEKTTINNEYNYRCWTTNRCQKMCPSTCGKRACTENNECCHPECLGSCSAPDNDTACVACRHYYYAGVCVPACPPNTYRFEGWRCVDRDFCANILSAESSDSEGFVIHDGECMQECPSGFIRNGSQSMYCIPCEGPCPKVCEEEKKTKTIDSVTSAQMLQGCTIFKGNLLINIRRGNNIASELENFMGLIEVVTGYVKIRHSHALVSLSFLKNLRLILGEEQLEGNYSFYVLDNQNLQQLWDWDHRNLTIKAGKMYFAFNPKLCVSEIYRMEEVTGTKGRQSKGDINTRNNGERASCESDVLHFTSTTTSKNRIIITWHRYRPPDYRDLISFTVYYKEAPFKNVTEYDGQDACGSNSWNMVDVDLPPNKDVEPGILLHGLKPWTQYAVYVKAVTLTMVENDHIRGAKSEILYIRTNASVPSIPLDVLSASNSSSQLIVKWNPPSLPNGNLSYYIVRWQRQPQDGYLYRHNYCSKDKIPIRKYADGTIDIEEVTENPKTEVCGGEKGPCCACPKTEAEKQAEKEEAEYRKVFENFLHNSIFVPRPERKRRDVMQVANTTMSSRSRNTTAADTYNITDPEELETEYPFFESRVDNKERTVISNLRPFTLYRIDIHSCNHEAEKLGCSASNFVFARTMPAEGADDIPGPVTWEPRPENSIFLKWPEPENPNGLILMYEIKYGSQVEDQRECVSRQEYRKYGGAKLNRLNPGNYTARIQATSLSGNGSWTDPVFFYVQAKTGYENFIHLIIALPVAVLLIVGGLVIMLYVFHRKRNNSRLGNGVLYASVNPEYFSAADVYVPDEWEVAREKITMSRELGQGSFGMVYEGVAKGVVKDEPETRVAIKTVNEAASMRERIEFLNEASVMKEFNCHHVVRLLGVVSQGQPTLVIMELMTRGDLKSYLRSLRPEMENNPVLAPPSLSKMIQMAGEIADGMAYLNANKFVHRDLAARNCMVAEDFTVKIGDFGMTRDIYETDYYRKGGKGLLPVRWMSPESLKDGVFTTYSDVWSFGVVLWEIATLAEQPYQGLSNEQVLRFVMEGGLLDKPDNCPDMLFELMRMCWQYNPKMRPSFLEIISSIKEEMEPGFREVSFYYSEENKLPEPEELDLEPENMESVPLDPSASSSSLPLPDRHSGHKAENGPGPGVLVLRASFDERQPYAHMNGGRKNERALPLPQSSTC
# [9] = listed as picropodophyllin polymorph C
# [10] = listed as picropodophyllin polymorph B
smiles,measurement,setting,value
"COc1cc([C@@H]2c3cc4c(cc3[C@H](O)[C@H]3COC(=O)[C@@H]23)OCO4)cc(OC)c1OC [polymorph C, picropodophyllin]",Solid form by XRPD after sonication,"[1]; in purified water, cooled on ice, sonicated for 5 minutes",no phase change occurred
same,Solid form by XRPD after mortaring,[1]; mortared for 5 minutes in agate mortar,no phase change occurred
same,Solid form by XRPD after stirring in water,[1]; [9],no phase change occurred
same,Solubility in 1% SDS in water,[2]; [9],400 µg/mL
same,TGA mass loss from ambient temperature to 150° C.,[3]; [9],0.1±0.1%
same,TGA mass loss from ambient temperature to 150° C.,[4]; [9],0.1±0.1%
same,solubility,"[5]; 37 °C, pH 6.5, aqueous buffer, thermodynamic from solid, Apparent Solubility Assay 1 + 2, PhB 6.5, 37° C., assays 1 and 2 combined, mean ± SD",5.85 ± 0.25 µg/mL
same,solubility,"[5]; 37 °C, pH 6.5, aqueous buffer, thermodynamic from solid, Apparent Solubility assay 1, PhB 6.5, 37° C., assay time polymorph B 19 hours, polymorph C […], mean ± SD, triplicate",5.88 ± 0.09 µg/mL
same,solubility at 50 min,"[5]; 37 °C, pH 6.5, aqueous buffer, thermodynamic from solid, Apparent Solubility assay 2, PhB 6.5, 37° C., assay time 29 hours (value obtained after 50 minutes), mean ± SD, triplicate",5.81 ± 0.38 µg/mL
same,solubility,"[5]; 37 °C, pH 6.5, fessif, thermodynamic from solid, Apparent Solubility Assay 1 + 2, FeSSIF pH 6.5, 37° C., assays 1 and 2 combined",12.6 ± 0.8 µg/mL
same,solubility at 25 h,"[5]; 37 °C, pH 6.5, fessif, thermodynamic from solid, Apparent Solubility assay 2, FeSSIF pH 6.5, 37° C., assay time 25 hours, triplicate",12.2 ± 1.07 µg/mL
"COc1cc([C@@H]2c3cc4c(cc3[C@H](O)[C@H]3COC(=O)[C@@H]23)OCO4)cc(OC)c1OC [polymorph B, picropodophyllin]",Solid form by XRPD after stirring in water,[1],converted to a mixture of mainly picropodophyllin monohydrate and some picropodophyllin polymorph B
same,Solid form obtained from slurry of polymorphs B and C,"[6]; acetone saturated with picropodophyllin, five days, ambient temperature",converted to polymorph C
same,Solid form obtained from slurry of polymorphs B and C,"[6]; ethyl acetate saturated with picropodophyllin, five days, ambient temperature",converted to polymorph C
same,Solid form obtained from slurry of polymorphs B and C,"[6]; mesitylene saturated with picropodophyllin, five days, ambient temperature",converted to polymorph C
same,Solid form obtained from slurry of polymorphs B and C,"[6]; mesitylene, 70° C., overnight",converted to polymorph C
same,Solid form obtained from slurry of polymorphs B and C,"[6]; mesitylene, 120° C., 4 hours",converted to polymorph C
same,solubility at 24 h,"[2]; 1% SDS in water, aqueous with cosolvent or surfactant or cyclodextrin, thermodynamic from solid",700 µg/mL
same,DVS mass increase,[7],0.2%
same,TGA mass loss from ambient temperature to 150° C.,[3]; [10],0.0±0.1%
same,"Solid-state instability (XRPD, TGA)",[4]; 3 months storage at 25° C./60% RH,does not show any sign(s) of solid-state instability
same,"Solid-state instability (XRPD, TGA)",[4]; 3 months storage at 40° C./75% RH,does not show any sign(s) of solid-state instability
same,TGA mass loss from ambient temperature to 150° C.,[4]; [10],0.0±0.1%
same,Change in appearance,[4]; 3 months at 25° C./60% RH,no change in appearance
same,Change in appearance,[4]; 3 months at 40° C./75% RH,no change in appearance
same,Apparent Solubility assay 1,"[5]; FeSSIF pH 6.5, 37° C., assay time polymorph B 16 hours, polymorph C 1.3 hours, triplicate",25.51 ± 0.51 µg/mL
same,Solubility increase in FeSSIF as compared to PhB 6.5,[5]; FeSSIF pH 6.5 vs PhB 6.5,2.2 fold
same,Apparent Solubility assay 1,"[5]; PhB 6.5, 37° C., assay time polymorph B 19 hours, polymorph C […], mean ± SD, triplicate",11.72 ± 0.22 µg/mL
"COc1cc(C2c3cc4c(cc3C(O)[C@H]3COC(=O)[C@@H]23)OCO4)cc(OC)c1OC (stereo partly drawn) [picropodophyllin monohydrate, reference compound]",Solubility in 1% SDS in water,[2]; monohydrate,200 µg/mL
COc1cc([C@@H]2c3cc4c(cc3[C@H](O)[C@H]3COC(=O)[C@@H]23)OCO4)cc(OC)c1OC [picropodophyllin],Inhibition of IGF-1R,[8],specific and potent inhibitor
